Results from patent US7709471B2, “Compounds” (AstraZeneca AB, priority 2006, dated 2010).

Columns and labels:
recombinant Plk1 = recombinant Plk1 (Homo sapiens, UniProt P53350); test: In Vitro Plk1 Enzyme Assay (SPA, GST-Cdc25C phosphorylation); assay type: biochemical; details: ATP 64 nM, 90 minutes, read-out: IC50 (Plk1 enzyme inhibition)
[1] = tested on: human colon tumour cell line HT29; test: Cellular Assay (phosphohistone H3 Ser10 mitotic marker, HT29); assay type: cell-based; details: HT-29, 24 h, HT29 cells, read-out: IC50 (cellular assay, phosphohistone H3)

Sequence of recombinant Plk1 (P53350 whole entry): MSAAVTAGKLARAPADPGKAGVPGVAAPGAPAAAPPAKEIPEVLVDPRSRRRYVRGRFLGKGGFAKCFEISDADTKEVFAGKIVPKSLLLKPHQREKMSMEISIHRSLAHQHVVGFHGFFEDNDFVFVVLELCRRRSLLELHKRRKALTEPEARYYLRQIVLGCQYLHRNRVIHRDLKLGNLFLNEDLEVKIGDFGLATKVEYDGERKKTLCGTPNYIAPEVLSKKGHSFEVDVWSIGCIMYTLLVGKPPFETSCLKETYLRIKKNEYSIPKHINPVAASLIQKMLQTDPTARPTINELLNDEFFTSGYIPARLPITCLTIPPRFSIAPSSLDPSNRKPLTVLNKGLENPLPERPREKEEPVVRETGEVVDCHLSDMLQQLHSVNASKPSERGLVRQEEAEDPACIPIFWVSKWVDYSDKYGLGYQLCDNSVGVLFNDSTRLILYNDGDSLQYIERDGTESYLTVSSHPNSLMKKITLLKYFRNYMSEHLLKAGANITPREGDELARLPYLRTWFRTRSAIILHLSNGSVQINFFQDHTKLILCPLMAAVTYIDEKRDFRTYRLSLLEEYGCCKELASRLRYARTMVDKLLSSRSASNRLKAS

| Compound | IC50 (recombinant Plk1) | IC50 [1] |
| --- | --- | --- |
| COc1cc(C(=O)NCCCCN2CCCC2)ccc1Nc1ncc2c(n1)N(C1CCCC1)CCC(=O)N2C [Example 33, 4-[(6-cyclopentyl-2-methyl-3-oxo-2,6,8,10-tetrazabicyclo[5.4.0]undeca-8,10,12-trien-9-yl)amino]-3-methoxy-N-(4-pyrrolidin-1-ylbutyl)benzamide] | < 300 nM | < 300 nM |
| COc1cc(C(=O)NCCN2CCN(C)CC2)ccc1Nc1ncc2c(n1)N(C1CCCC1)CCC(=O)N2C [Example 34, 4-[(6-cyclopentyl-2-methyl-3-oxo-2,6,8,10-tetrazabicyclo[5.4.0]undeca-8,10,12-trien-9-yl)amino]-3-methoxy-N-[2-(4-methylpiperazin-1-yl)ethyl]benzamide] | < 300 nM | < 300 nM |
| COc1cc(C(=O)NCCN2CCC(F)(F)CC2)ccc1Nc1ncc2c(n1)N(C1CCCC1)CCC(=O)N2C [Example 37, 4-[(6-cyclopentyl-2-methyl-3-oxo-2,6,8,10-tetrazabicyclo[5.4.0]undeca-8,10,12-trien-9-yl)amino]-N-[2-(4,4-difluoro-1-piperidyl)ethyl]-3-methoxy-benzamide] | < 1000 nM | < 300 nM |
| COc1cc(C(=O)NCCCNc2ccccn2)ccc1Nc1ncc2c(n1)N(C1CCCC1)CCC(=O)N2C [Example 38, 4-[(6-cyclopentyl-2-methyl-3-oxo-2,6,8,10-tetrazabicyclo[5.4.0]undeca-8,10,12-trien-9-yl)amino]-3-methoxy-N-[3-(pyridin-2-ylamino)propyl]benzamide] | < 1000 nM | < 300 nM |
| COc1cc(C(=O)NC2CCNCC2)ccc1Nc1ncc2c(n1)N(C1CCCC1)CCC(=O)N2C [Example 41, 4-[(6-cyclopentyl-2-methyl-3-oxo-2,6,8,10-tetrazabicyclo[5.4.0]undeca-8,10,12-trien-9-yl)amino]-3-methoxy-N-(4-piperidyl)benzamide] | < 300 nM | < 300 nM |
| COc1cc(C(=O)NCCCN)ccc1Nc1ncc2c(n1)N(C1CCCC1)CCC(=O)N2C [Example 42, N-(3-aminopropyl)-4-[(6-cyclopentyl-2-methyl-3-oxo-2,6,8,10-tetrazabicyclo[5.4.0]undeca-8,10,12-trien-9-yl)amino]-3-methoxy-benzamide] | < 300 nM | < 30000 nM |
| CNCCNC(=O)c1ccc(Nc2ncc3c(n2)N(C2CCCC2)CCC(=O)N3C)c(OC)c1 [Example 43, 4-[(6-cyclopentyl-2-methyl-3-oxo-2,6,8,10-tetrazabicyclo[5.4.0]undeca-8,10,12-trien-9-yl)amino]-3-methoxy-N-(2-methylaminoethyl)benzamide] | < 300 nM | < 300 nM |
| COc1cc(C(=O)NC2CCNC2)ccc1Nc1ncc2c(n1)N(C1CCCC1)CCC(=O)N2C (centres unmarked) [Example 45, 4-[(6-cyclopentyl-2-methyl-3-oxo-2,6,8,10-tetrazabicyclo[5.4.0]undeca-8,10,12-trien-9-yl)amino]-3-methoxy-N-pyrrolidin-3-yl-benzamide] | < 300 nM | < 300 nM |
| COc1cc(C(=O)NC[C@@H]2CCNC2)ccc1Nc1ncc2c(n1)N(C1CCCC1)CCC(=O)N2C [Example 47, 4-[(6-cyclopentyl-2-methyl-3-oxo-2,6,8,10-tetrazabicyclo[5.4.0]undeca-8,10,12-trien-9-yl)amino]-3-methoxy-N-[[(3R)-pyrrolidin-3-yl]methyl]benzamide] | < 300 nM | < 1000 nM |
| COc1cc(C(=O)NC2CCN(C)CC2)c(F)cc1Nc1ncc2c(n1)N(C1CCCC1)CCC(=O)N2C [Example 48, 4-[(6-cyclopentyl-2-methyl-3-oxo-2,6,8,10-tetrazabicyclo[5.4.0]undeca-8,10,12-trien-9-yl)amino]-2-fluoro-5-methoxy-N-(1-methyl-4-piperidyl)benzamide] | < 300 nM | < 300 nM |
| COc1cc(C(=O)NC2CCN(C(=O)OC(C)(C)C)CC2)ccc1Nc1ncc2c(n1)N(C1CCCC1)CCC(=O)N2C [Example 50, tert-butyl 4-[[4-[(6-cyclopentyl-2-methyl-3-oxo-2,6,8,10-tetrazabicyclo[5.4.0]undeca-8,10,12-trien-9-yl)amino]-3-methoxy-benzoyl]amino]piperidine-1-carboxylate] | < 100000 nM | < 300 nM |
| COc1cc(C(=O)N[C@@H]2CCN(C(=O)OC(C)(C)C)C2)ccc1Nc1ncc2c(n1)N(C1CCCC1)CCC(=O)N2C [Example 52, tert-butyl (3R)-3-[[4-[(6-cyclopentyl-2-methyl-3-oxo-2,6,8,10-tetrazabicyclo[5.4.0]undeca-8,10,12-trien-9-yl)amino]-3-methoxy-benzoyl]amino]pyrrolidine-1-carboxylate] | < 1000 nM | < 300 nM |
| COc1cc(C(=O)NC2CCN(C(=O)OCc3ccccc3)CC2)ccc1Nc1ncc2c(n1)N(C1CCCC1)CCC(=O)N2C [Example 54, Benzyl 4-[[4-[(6-cyclopentyl-2-methyl-3-oxo-2,6,8,10-tetrazabicyclo[5.4.0]undeca-8,10,12-trien-9-yl)amino]-3-methoxy-benzoyl]amino]piperidine-1-carboxylate] | < 100000 nM | < 300 nM |
| COc1cc(C(=O)N[C@H]2CCNC2)ccc1Nc1ncc2c(n1)N(C1CCCC1)CCC(=O)N2C [Example 56, 4-[(6-cyclopentyl-2-methyl-3-oxo-2,6,8,10-tetrazabicyclo[5.4.0]undeca-8,10,12-trien-9-yl)amino]-3-methoxy-N-[(3S)-pyrrolidin-3-yl]benzamide] | < 300 nM | < 1000 nM |
| COc1cc(C(=O)N[C@H]2[C@@H]3CNC[C@@H]32)ccc1Nc1ncc2c(n1)N(C1CCCC1)CCC(=O)N2C [Example 57, N-[(1S,5R)-3-azabicyclo[3.1.0]hex-6-yl]-4-[(6-cyclopentyl-2-methyl-3-oxo-2,6,8,10-tetrazabicyclo[5.4.0]undeca-8,10,12-trien-9-yl)amino]-3-methoxy-benzamide] | < 300 nM | < 300 nM |
| CCN(CC)C1CCC(NC(=O)c2ccc(Nc3ncc4c(n3)N(C3CCCC3)CCC(=O)N4C)c(OC)c2)CC1 (centres unmarked) [Example 58, 4-[(6-cyclopentyl-2-methyl-3-oxo-2,6,8,10-tetrazabicyclo[5.4.0]undeca-8,10,12-trien-9-yl)amino]-N-(4-diethylaminocyclohexyl)-3-methoxy-benzamide] | < 300 nM | < 300 nM |
| COc1cc(C(=O)N[C@H]2C[C@H]3CCC[C@@H](C2)N3C)ccc1Nc1ncc2c(n1)N(C1CCCC1)CCC(=O)N2C [Example 59, 4-[(6-cyclopentyl-2-methyl-3-oxo-2,6,8,10-tetrazabicyclo[5.4.0]undeca-8,10,12-trien-9-yl)amino]-3-methoxy-N-[(1S,5R)-9-methyl-9-azabicyclo[3.3.1]non-7-yl]benzamide] | < 300 nM | < 300 nM |

Next, values leading:

| IC50 (recombinant Plk1) | IC50 [1] | Compound |
| --- | --- | --- |
| < 300 nM | < 30000 nM | COc1cc(C(=O)NCCCCN)ccc1Nc1ncc2c(n1)N(C1CCCC1)CCC(=O)N2C [Example 40, N-(4-aminobutyl)-4-[(6-cyclopentyl-2-methyl-3-oxo-2,6,8,10-tetrazabicyclo[5.4.0]undeca-8,10,12-trien-9-yl)amino]-3-methoxy-benzamide] |
| < 300 nM | < 300 nM | CNCCCNC(=O)c1ccc(Nc2ncc3c(n2)N(C2CCCC2)CCC(=O)N3C)c(OC)c1 [Example 44, 4-[(6-cyclopentyl-2-methyl-3-oxo-2,6,8,10-tetrazabicyclo[5.4.0]undeca-8,10,12-trien-9-yl)amino]-3-methoxy-N-(3-methylaminopropyl)benzamide] |
| < 300 nM | < 300 nM | COc1cc(C(=O)NCC(C)(C)CN)ccc1Nc1ncc2c(n1)N(C1CCCC1)CCC(=O)N2C [Example 46, N-(3-amino-2,2-dimethyl-propyl)-4-[(6-cyclopentyl-2-methyl-3-oxo-2,6,8,10-tetrazabicyclo[5.4.0]undeca-8,10,12-trien-9-yl)amino]-3-methoxy-benzamide] |
| < 300 nM | < 300 nM | COc1cc(C(=O)NC2CCN(C(C)C)CC2)ccc1Nc1ncc2c(n1)N(C1CCCC1)CCC(=O)N2C [Example 49, 4-[(6-cyclopentyl-2-methyl-3-oxo-2,6,8,10-tetrazabicyclo[5.4.0]undeca-8,10,12-trien-9-yl)amino]-3-methoxy-N-(1-propan-2-yl-4-piperidyl)benzamide] |
| < 100000 nM | < 1000 nM | COc1cc(C(=O)N[C@H]2[C@@H]3CN(C(=O)OCc4ccccc4)C[C@@H]32)ccc1Nc1ncc2c(n1)N(C1CCCC1)CCC(=O)N2C [Example 51, Benzyl(1S,5R)-6-[[4-[(6-cyclopentyl-2-methyl-3-oxo-2,6,8,10-tetrazabicyclo[5.4.0]undeca-8,10,12-trien-9-yl)amino]-3-methoxy-benzoyl]amino]-3-azabicyclo[3.1.0]hexane-3-carboxylate] |
| < 100000 nM | < 1000 nM | COc1cc(C(=O)N[C@H]2CCN(C(=O)OC(C)(C)C)C2)ccc1Nc1ncc2c(n1)N(C1CCCC1)CCC(=O)N2C [Example 53, tert-butyl (3S)-3-[[4-[(6-cyclopentyl-2-methyl-3-oxo-2,6,8,10-tetrazabicyclo[5.4.0]undeca-8,10,12-trien-9-yl)amino]-3-methoxy-benzoyl]amino]pyrrolidine-1-carboxylate] |
| < 300 nM | < 300 nM | COc1cc(C(=O)N[C@@H]2CCNC2)ccc1Nc1ncc2c(n1)N(C1CCCC1)CCC(=O)N2C [Example 55, 4-[(6-cyclopentyl-2-methyl-3-oxo-2,6,8,10-tetrazabicyclo[5.4.0]undeca-8,10,12-trien-9-yl)amino]-3-methoxy-N-[(3R)-pyrrolidin-3-yl]benzamide] |
| < 300 nM | < 300 nM | COc1cc(C(=O)NC2CCC(N(C)C)CC2)ccc1Nc1ncc2c(n1)N(C1CCCC1)CCC(=O)N2C (centres unmarked) [Example 60, 4-[(6-cyclopentyl-2-methyl-3-oxo-2,6,8,10-tetrazabicyclo[5.4.0]undeca-8,10,12-trien-9-yl)amino]-N-(4-dimethylaminocyclohexyl)-3-methoxy-benzamide] |
